“Also recorded” adds a separate entry of the source.
Tests used:
[1] = system: G. duodenalis trophozoites; experiment: Morphological evaluation by light microscopy (Diff-Quik), G. duodenalis; format: cell-based, Giardia duodenalis; conditions: germacrone 100 µg/mL
Procedure: Each well contained 435 μL of culture medium and 15 μL of the test or control compounds at the above-mentioned concentrations. The chamber included: two wells for growth control (0.5 h, 48 h), two for germacrone (0.5 h, 48 h), and two for metronidazole (0.5 h, 48 h). Incubation was performed at 37 °C. At each time point, the medium was removed, wells were dried, fixed, and stained with Diff-Quik. Morphological changes were analyzed using light microscopy. Experiments were performed as independent biological replicates on different plates, and one Diff-Quik stained smear was obtained per condition and time point per biological replicate. For morphometric analysis, a total of 30 trophozoites per condition and time point were measured across the independent biological replicates and were selected by consecutive sampling during a predefined serpentine (zig-zag) scan across the preparation. Up to two eligible trophozoites per field (intact, well-focused and non-overlapping) were measured in sequential fields until n = 30 was reached, avoiding subjective selection of “representative” cells. Overlapping, partially visible, out-of-focus, edge-of-field, or debris-obscured trophozoites were excluded a priori. Trophozoites were photographed using a researcher's mobile phone mounted to the microscope ocular. Calibration was performed at the same magnification using a stage micrometre and applied in ImageJ v. 1.54d. One Diff-Quik stained smear was obtained per condition/time point per biological replicate Cell length, cell width, cell surface, nuclear length, nuclear width, axoneme (only Giardia), and length of axostyle (only T. gallinae) were measured with ImageJ software, and the data were recorded in an Excel database for statistical analysis. The Shapiro-Wilk test was used to assess the normality of the morphological variables. When data followed a normal distribution, Student's t-test was applied; otherwise, non-parametric tests, such as the Mann-Whitney U test, was used. Values of p < 0.05 were considered significant. For the morphological analysis, the mean, standard deviation, median, and interquartile range were calculated using SPSS version 20 (IBM Corp., Armonk, NY, USA).

[2] = system: L. infantum promastigotes; experiment: Morphological evaluation by light microscopy (Diff-Quik), L. infantum; format: cell-based, Leishmania infantum; conditions: germacrone 100 µg/mL
Procedure: L. infantum, T. gallinae and G. duodenalis were studied at 0, and 48 h after treatment with germacrone (100 µg/mL), and controls (DMSO 1%, metronidazole at 10 µg/mL for T. gallinae and G. duodenalis and amphotericin B at 1 µg/mL for L. infantum).
For L. infantum and T. gallinae, cultures in the exponential growth phase (10^7 promastigotes/mL and 5 × 10^5 trophozoites/mL, respectively) were treated in 96-well microplates. At each time point, quadruplicates were assigned per condition: growth control, germacrone, and the corresponding positive control (metronidazole or amphotericin B). For microscopy, quadruplicate wells corresponding to the same condition/time point were pooled prior to centrifugation to obtain sufficient biomass and a representative pellet for smear preparation. Pooled samples per condition/time point were centrifuged, resuspended in FBS and spread onto microscope slides. Once dried, samples were fixed and stained with Diff-Quik (Medion Diagnostic AG, Düdingen, Switzerland) following the manufacturer’s instructions. Additionally, three wells per condition (triplicates) were used for the MTT assay, with absorbance measured by spectrophotometry after 48 h.
Morphological changes were analyzed using light microscopy. Experiments were performed as independent biological replicates on different plates, and one Diff-Quik stained smear was obtained per condition and time point per biological replicate. For morphometric analysis, a total of 30 trophozoites per condition and time point were measured across the independent biological replicates and were selected by consecutive sampling during a predefined serpentine (zig-zag) scan across the preparation. Up to two eligible trophozoites per field (intact, well-focused and non-overlapping) were measured in sequential fields until n = 30 was reached, avoiding subjective selection of “representative” cells. Overlapping, partially visible, out-of-focus, edge-of-field, or debris-obscured trophozoites were excluded a priori. Trophozoites were photographed using a researcher’s mobile phone mounted to the microscope ocular. Calibration was performed at the same magnification using a stage micrometre and applied in ImageJ v. 1.54d. One Diff-Quik stained smear was obtained per condition/time point per biological replicate Cell length, cell width, cell surface, nuclear length, nuclear width, axoneme (only Giardia), and length of axostyle (only T. gallinae) were measured with ImageJ software, and the data were recorded in an Excel database for statistical analysis.
The Shapiro–Wilk test was used to assess the normality of the morphological variables. When data followed a normal distribution, Student’s t-test was applied; otherwise, non-parametric tests, such as the Mann–Whitney U test, was used. Values of p < 0.05 were considered significant. For the morphological analysis, the mean, standard deviation, median, and interquartile range were calculated using SPSS version 20 (IBM Corp., Armonk, NY, USA).

[3] = metronidazole 100 µg/mL, 0.5 and 48 h, control DMSO 1%

Compound: CC(C)=C1C/C=C(\C)CC/C=C(\C)CC1=O [Compound 2, germacrone]
- axoneme length vs control [1, 3]: decreased at 0.5 h; also recorded: at 48 h, germacrone caused an increase
- cell length vs control [1, 3]: significant reductions at 30 min
- cell width vs control [1, 3]: no differences were observed at 0.5 h with germacrone, but after 48 h, a significant increase
- nuclear length (left and right) vs control [1, 3]: decreased significantly with germacrone at 0.5 h and later increased after 48 h
- nuclear width vs control [1, 3]: reduction at 0.5 h, followed by an increase at 48 h
- morphological changes (light microscopy) ([1]; 48 h of exposure, Diff-Quik): less defined cytoplasm and nucleus of the cells
- cell length vs control ([2]; 0.5 and 48 h, control DMSO 1%): initial increase at 0.5 h but subsequently decreased at 48 h
- cell surface area vs control ([2]; 0.5 and 48 h, control DMSO 1%): transiently increased at 0.5 h with no significant changes detected at 48 h
- cell width vs control ([2]; 0.5 and 48 h, control DMSO 1%): increased significantly at both 0.5 and 48 h
- morphological changes (light microscopy) ([2]; 48 h of exposure, Diff-Quik): less pronounced

— article PMC12841663, “Antiprotozoal Potential of Cultivated Geranium macrorrhizum Against Giardia duodenalis, Trichomonas gallinae and Leishmania infantum” (International Journal of Molecular Sciences, 2026)
